Source: patent publication US20180153780A1, “Composition For Providing High Lift And Color Deposit” (Zotos International, Inc., priority 2016, published 2018)

Columns and labels:
[1] = Visual evaluation of the alkalizers' lightening power; conditions: conclusion from Tables 5 and 6, comparison of alkalizers
Source text: The examples above show hair lightening and hair coloring compositions. […]

[2] = Minolta L.A.B. (CIELAB) evaluation of lightening power on hair tresses; conditions: FIG. 1
Experimental: In all examples, the ΔE values were measured using a L.A.B. reading using the color measurement method of CIELAB which is used to mathematically compute and compare the color of hair tresses. The method was developed by CIE using L*, a* and b* values. L* represents the difference between light (where L*=100) and dark (where L* is 0); a represents the difference between green ([…]) and red (+a*); and b* represents the difference between yellow (+b*) and blue (−b*). This system then maps true color to a place on a three dimensional graph wherein the variables are calculated by the changes in their values and those changes are used to compute the ΔE value which is a change in color. Such a system is commercially known and used in the art.

SMILES	lift on the darker hair [1]	lift when added to ammonium hydroxide and MEA, versus the same component alone [2]
N [ammonium hydroxide]	highest amount of lift	
O=[Si]([O-])[O-].[Na+].[Na+] [sodium metasilicate]		synergistic lift
